# Measurements: patent publication US20090298938A1, “USE OF SEMI SYNTHETIC ANALOGUES OF BOSWELLIC ACIDS FOR ANTICANCER ACTIVITY” (COUNCIL OF SCIENTIFIC & INDUSTRIAL RESEARCH, priority 2008, published 2009)
# What was measured:
# Format in all cases: cell-based, human
# Settings in all cases: 48 hr
# [1] = test system: HT-29 colon cancer cells; assay: In vitro cytotoxicity, SRB assay, HT-29
# Procedure: (§1) The semi-synthetic analogues of formula 1 have been subjected to in vitro cytotoxicity screening in a panel of human cancer cell lines using following methodology. The human cancer cell lines were obtained either from National Center for Cell Science, Pune or National Cancer Institute, Fredrick, Md., USA. Cells were grown in tissue culture flasks in complete growth medium (RPMI-1640 medium with 2 mM glutamine, 100 µg/ml streptomycin, pH 7.4, sterilized by filtration and supplemented with 10% sterilized fetal calf serum and 100 units/ml penicillin before use) at 37° C. in an atmosphere of 5% CO2 and 90% relative humidity in a carbon dioxide incubator. The cells at sub-confluent stage were harvested from flask by treatment with trypsin (0.05% trypsin in PBS containing 0.02% EDTA) and suspended in complete growth medium. Cells with cell viability of more than 97% by trypan blue exclusion technique were used for determination of cytotoxicity.
# (§2) Test material were dissolved in DMSO (dimethyl sulphoxide) to obtain a stock solution of 2×10^−2M. The stock solution was serially diluted with complete growth medium containing 50 μg/ml of gentamycin to obtain working test solutions of required concentrations.
# (§3) The suspension of human cancer cell lines of required cell density in complete growth medium was prepared and cell suspension (100 μl/well) of each cell line was added to wells of 96-well tissue culture plate. Suitable blanks and controls were also included. The plates were incubated for 24 hrs in a carbon dioxide incubator.
# (§4) The working test solutions of different concentrations (100 μl/well) were added after 24 hr incubation. The plates were further incubated for 48-hrs after addition of the test materials. After incubation, the cell growth was stopped by gently layering of 50 μl of TCA (50% trichloroacetic acid) on top of the medium in all the wells. The plates were incubated at 4° C. for one hour to fix the cells attached to bottom of the wells. Liquids of all the wells were gently pipetted out and discarded. The plates were washed five times with distilled water to remove TCA, growth medium, low molecular weight metabolites, serum proteins etc. The plates were air dried.
# (§5) Cell growth was measured by staining with sulforhodamine B dye (SRB). The SRB solution (100 μl, 0.4% in 1% acetic acid) was added to each well and the plates were incubated at room temperature for 30 minutes. The unbound SRB was quickly removed by washing the wells five times with 1% acetic acid solution and plates were air dried. Tris buffer (100 μl, 0.01 M, pH 10.4) was added to all the wells and plates were gently stirred for 5 minutes on a mechanical stirrer. The optical density was recorded on ELISA reader at 540 nm.
# (§6) Cell growth in the presence of test material was calculated in terms of the percentage of growth inhibition. The in vitro cytotoxicity of four natural boswellic acid i.e. boswellic acid, acetyl boswellic acid, 11-keto-boswellic acids, acetyl-11-ketio-boswellic acid on various cancer cell lines has been examined and typical results are given in the succeeding table. Based on their cytotoxicity profile the analogues of formula 1 were studied for inhibition of cell proliferation by using MTT assay method. […] The induction of apoptosis in HL-60 cells was also validated by generation of DNA fragmentation.
# (§7) Assay of cytotoxicity potential of test materials is a primary standard procedure for seeking lead molecules for development of anti-cancer leads. Human cancer cells after trypsinization into single cell suspension were grown in 96-well culture plate for 24 hr. Cells were treated with indicated doses of test analogues and incubated in CO2 incubator for 48 hr. Thereafter, cells were stained with sulforhodamine B dye, and the bound dye was eluted to measure the optical density indicating cell growth in Elisa Reader at 540 nm [Monks et al., 1991]. […]
# [2] = test system: SW-620 colon cancer cells; assay: In vitro cytotoxicity, SRB assay, SW-620
# Procedure: as §1, §2, §3, §4, §5, §6, §7
# [3] = test system: Colo-205 colon cancer cells; assay: In vitro cytotoxicity, SRB assay, Colo-205
# Procedure: as §1, §2, §3, §4, §5, §6, §7
# [4] = test system: Hep-2 cells; assay: In vitro cytotoxicity, SRB assay, Hep-2
# Procedure: as §1, §2, §3, §4, §5, §6, §7
# [5] = test system: PC-3 cells; assay: In vitro cytotoxicity, SRB assay, PC-3
# Procedure: as §1, §2, §3, §4, §5, §6, §7
# [6] = Conc. 5 × 10^−5, natural boswellic acids
# [7] = Conc. 5 × 10^5 (r27-r29: 5 × 10^−5), Table 1
Compound,"Growth inhibition % HT-29 Colon [1, 6] [%]","Growth inhibition % SW-620 Colon [2, 6] [%]","Growth inhibition % Colo-205 Colon [3, 6] [%]","Growth inhibition % Hep-2 [4, 6] [%]","Growth inhibition % PC-3 [5, 6] [%]","Growth inhibition % HT-29 Colon [1, 7] [%]","Growth inhibition % SW-620 Colon [2, 7] [%]","Growth inhibition % Colo-205 Colon [3, 7] [%]","Growth inhibition % Hep-2 [4, 7] [%]","Growth inhibition % PC-3 [5, 7] [%]"
Acetyl Boswellic acid [reference compound],96,97,95,88,45,–,–,–,–,–
"CC(=O)O[C@@H]1CC[C@@]2(C)[C@@H](CC[C@]3(C)[C@@H]2C(=O)C=C2[C@@H]4[C@@H](C)[C@H](C)CC[C@]4(C)CC[C@]23C)[C@@]1(C)C(=O)O [Acetyl-11-keto-boswellic acid, reference compound]",91,91,89,62,79,–,–,–,–,–
"CC(=O)OC1CCC2(C)C(CCC3(C)C2C(=O)C=C2C4C(C)C(C)CCC4(C)CCC23C)C1(C)C(=O)O (centres unmarked) [1, R3O = COCH3, R1 = H, R4 + R5 = O]",–,–,–,–,–,45,48,56,50,60
"CCC(=O)OC1CCC2(C)C(CCC3(C)C2C(=O)C=C2C4C(C)C(C)CCC4(C)CCC23C)C1(C)C(=O)O (centres unmarked) [1, R3O = COCH2CH3, R1 = H, R4 + R5 = O]",–,–,–,–,–,92,90,92,72,61
CCCCCC(=O)OC1CCC2(C)C(CCC3(C)C2C(=O)C=C2C4C(C)C(C)CCC4(C)CCC23C)C1(C)C(=O)O (centres unmarked),–,–,–,–,–,96,100,95,100,73
"CCC(=O)OC1CCC2(C)C(CCC3(C)C2CC=C2C4C(C)C(C)CCC4(C)CCC23C)C1(C)C(=O)O (centres unmarked) [1, R3O = —COCH2CH3, R1 = H, R4 = R5 = H]",–,–,–,–,–,94,94,86,86,98
"CC1CCC2(C)CCC3(C)C(=CCC4C5(C)CCC(OC=O)C(C)(C(=O)O)C5CCC43C)C2C1C (centres unmarked) [1, R3O = COH, R1 = H, R4 = R5 = H]",–,–,–,–,–,79,92,93,75,99
"CC1CCC2(C)CCC3(C)C(=CC(=O)C4C5(C)CCC(O)C(C)(C(=O)O)C5CCC43C)C2C1C (centres unmarked) [1, R = H, R1 = H, X = O]",–,–,–,–,–,46,49,52,53,68
"CC1CCC2(C)CCC3(C)C(=CCC4C5(C)CCC(O)C(C)(C(=O)O)C5CCC43C)C2C1C (centres unmarked) [1, R3 = H, R1 = H, R4 = R5 = H]",–,–,–,–,–,73,65,85,66,69
"C[C@H]1[C@H](C)CC[C@]2(C)CC[C@]3(C)C(=CC(=O)[C@@H]4[C@@]5(C)CC[C@@H](O)[C@](C)(C(=O)O)[C@@H]5CC[C@]43C)[C@H]12 [11-keto-boswellic acid, reference compound]",38,28,50,34,100,–,–,–,–,–
